Source: patent US20170079966A1, “INHIBITION OF TUMOR CELL INTERACTIONS WITH THE MICROENVIRONMENT RESULTING IN A REDUCTION IN TUMOR GROWTH AND DISEASE PROGRESSION” (Deciphera Pharmaceuticals, LLC, priority 2014, published 2017)
Read-outs that look alike come from different tables or passages of the source.

Columns and labels:
SK-MEL-28 cells = assay: HGF-stimulated melanoma proliferation cell assay; format: cell-based; conditions: Homo sapiens, 72 h
Procedure: SK-MEL-28 cells were added to 96-well plates (2,500 cells/well). Effects on cell proliferation were assessed by incubation of SK-MEL-28 cells in complete media, media containing 50 ng/mL HGF, or media mixed 1:1 with MRC-5 fibroblast-conditioned media. Plates were incubated for 72 h.

[1] = test system: SK-MEL-28 and SK-MEL-5 cells (pERK, pMET, AKT); assay: HGF-stimulated melanoma cell signal transduction assay; format: cell-based; conditions: 50 nM
Procedure: SK-MEL-5 and SK-MEL-28 cells were added to 12-well plates at 450,000 and 250,000 cells/well, respectively, and incubated overnight. […] Cells were then stimulated with 50 ng/mL HGF for 1 hr. Antibodies were obtained from Cell Signaling Technology.

PyMT mammary tumor = assay: PyMT syngeneic breast cancer model; format: in vivo, mice
Procedure: Female FVB/NJ mice were implanted in the 4th mammary fat pad with one million cells that had been dissociated from tumor fragments from MMTV-PyMT donor mice. […] Mice (n=10/group) were dosed for three weeks, then, primary tumor and lungs were collected and fixed. Lung sections were stained with H&E at Premier Laboratory. Lung metastases (≧10 cells) were counted manually via microscopy. Data were analyzed via one-way analysis of variance (ANOVA), with post-hoc analysis by the method of Holm-Sidak. For analysis of TIE2-positive macrophages, tumor sections were stained with TIE2 and CD31 antibodies at Premier Laboratory. The density of TIE2-positive cells at the stroma/tumor boundary in each tumor was scored using 0=no staining, 1=low, 2=medium, and 3=high.

U87-MG xenograft glioma = assay: Orthotopic U87-MG xenograft efficacy model (BLI); format: in vivo, mice; conditions: after two weeks of treatment; bevacizumab 5 mg/kg IP every three days; Compound 1 10 mg/kg BID
Procedure: Protocol for in vivo xenograft efficacy study. […] Treatments began on Day 31.
The tumor cells were injected intracerebroventricularly (ICV) and tumor growth was monitored in vivo by quantitation of luciferase-mediated BLI.

[2] = test system: circulating TIE2+ and TIE2+/MET+ monocytes; assay: Flow cytometry of circulating TIE2/MET-expressing monocytes from U87-MG xenograft model; format: in vivo, mice; conditions: single agents; after five weeks of treatment
Procedure: Flow cytometry of circulating TIE2/MET-expressing monocytes from U87-MG xenograft model. Peripheral blood samples were fixed using Lyse/Fix buffer (BD Biosciences, San Jose, Calif.). BD Fc Block was added and cells were stained with CD11b-PECy7 and Gr1-APC antibodies (BD Pharmingen), and TIE2-PE and MET-FITC antibodies (eBioscience) or isotype controls. Data was collected on an Accuri C6 cytometer. Monocytes were gated using side and forward scatter.
To monitor these monocytes in the U87 survival model, peripheral monocytes were gated on CD11b+/Grl-surface markers and TIE2^+ and/or TIE2^+/MET^+ cells quantitated. In the U87 glioma survival study, we observed both of these TIE2^+ expressing monocyte populations in the circulation of vehicle-treated mice after five weeks of treatment. […] The lowered population of both of these TIE2^+ monocyte populations in the combination cohort was consistent with greater survival benefit (FIG. 6).

GSC11 glioblastoma cells = assay: GSC11 glioma stem cell patient-derived xenograft model (tumor volume, immunohistochemistry); format: in vivo, mice
Procedure: (§1) For the in vivo experiments, 4- to 6-week-old female nude mice that were strictly inbred at The University of Texas MD Anderson Cancer Center and maintained in the MD Anderson Veterinary in accordance with institutional guidelines were used. For the in vivo experiments, GSC11 (5×10^5) or GSC17 (5×10^4) glioblastoma cells were implanted intracranially into nude mice. […] Control mice for these cohorts were treated with phosphate-buffered saline by i.p. injection and/or with 0.4% HPMC vehicle by oral gavage. One cohort of 10 mice per group were treated continuously and followed for survival. A separate cohort of 9 mice per group were treated continuously until the designated time point, and the tumors from these mice were extracted at 3, 4, 5 weeks in GSC11 xenograft mice model and at 3.5, 4.5, 5.5 weeks in GSC17 xenograft mice model after the start of treatment.
(§2) When the mice treated for the designated time period developed signs and symptoms of advanced tumors, they were euthanized, and their brains were removed, fixed in 4% formaldehyde for 24 hours, and embedded in paraffin. The tissues were then sectioned serially (4 μm) and stained with hematoxylin and eosin (Sigma-Aldrich). Tumor formation and phenotype were determined by histologic analysis of the hematoxylin- and eosin-stained sections. The tumor volume, greatest longitudinal diameter (length), and greatest transverse diameter (width) were measured using an external caliper and Adobe Illustrator software. The tumor volumes were calculated by the following formula: volume=½(length×width^2).
(§3) For immunohistochemical analyses, the tissue sections were deparaffinized and subjected to graded rehydration. After blocking the tissue in 5% horse and goat serum and antigen retrieval solution (citrate buffer, pH 6.0), we incubated the tissue sections overnight at 4° C. with primary antibodies against Factor VIII (1:500; A0082, Dako) to assess microvessel formation, vimentin (1:100; M0725, Dako) to assess mesenchymal marker expression, F4/80 (1:50; 123102, BioLegend) to assess monocyte infiltration, nestin (1:300; Ab6142, Abcam) to assess glioma stem cell marker expression, HGF (1:200; LS-B4657, LSBio), and TIE2 (1:50; Santa Cruz Biotechnology) to assess TIE2-expressing monocyte infiltration. Texas red fluorescein isothiocyanate-conjugated secondary antibodies or anti-rat immunoglobulin G antibodies (Invitrogen) were used for 1 hour at room temperature.
(§4) All statistical analyses were conducted with the GraphPad 6 (InStat) software for Windows 7. Survival analysis was conducted using the Kaplan-Meier method, and differences in survival between treatment groups were assessed using the log-rank test. All other comparisons were performed using an unpaired two-tailed Student t-test. Summary statistics for continuous data are expressed as the mean±standard error of the mean. P values less than 0.05 were considered statistically significant. The nestin staining was assessed using the Image-Pro Plus system version 7.0 (Media Cybernetics) in ×10 fields of at least three tumor samples per group with three to four different sections per tumor sample.

GSC17 glioblastoma cells = assay: GSC17 glioma stem cell patient-derived xenograft model (tumor volume, immunohistochemistry); format: in vivo, mice
Procedure: as §1, §2, §3, §4

Question: Which IC50 (SK-MEL-28 cells; 50 ng/mL HGF or MRC-5 fibroblast-conditioned media, read-out: IC50, proliferation of SK-MEL-28 with HGF or fibroblast-conditioned media) does the source give for `CC(C)(C)c1nc(-c2cccc(NS(=O)(=O)c3c(F)cccc3F)c2F)c(-c2ccnc(N)n2)s1` [dabrafenib] here?
Answer: > 10000 nM

Question: And the IC50 (SK-MEL-28 cells; complete media, read-out: IC50, proliferation of SK-MEL 28)?
Answer: 10.6 nM

Question: And the “Phosphorylation of ERK upon HGF stimulation” value ([1]; 50 ng/mL HGF 1 hr)?
Answer: ERK remained fully phosphorylated

Question: What about the “Phosphorylation of ERK” value ([1]; no HGF) of the same compound?
Answer: inhibited phosphorylation

Question: For `CC(=O)O[C@H]1C(=O)[C@@]2(C)[C@H]([C@H](OC(=O)c3ccccc3)[C@]3(O)C[C@H](OC(=O)[C@H](O)[C@@H](NC(=O)c4ccccc4)c4ccccc4)C(C)=C1C3(C)C)[C@]1(OC(C)=O)CO[C@@H]1C[C@@H]2O` [paclitaxel, reference compound], which “Tumor growth inhibition (TGI)” value (PyMT mammary tumor; after dosing for three weeks, paclitaxel 10 mg/kg i.v. every 5 days, Compound 1 15 mg/kg twice daily) is on record?
Answer: 42%

Question: What about the “Reduction of TIE2 score (stromal density of TIE2+ cells)” value (PyMT mammary tumor; same dosing) of the same compound?
Answer: did not reduce

Question: And the “Reduction of lung metastases compared to controls” value (PyMT mammary tumor; same dosing)?
Answer: 64%

Question: What does the source list for bevacizumab [reference compound]?
Answer: Decrease in BLI signal compared to vehicle (U87-MG xenograft glioma): 63%; Numbers of circulating TIE2+ and TIE2+/MET+ monocyte populations [2]: did not alter; Tumor volume at 3 weeks (GSC11 glioblastoma cells; GSC11, bevacizumab 10 mg/kg i.p. twice per week, Compound 1 10 mg/kg oral twice daily): 14.3±6.9 mm^3; Tumor volume at 4 weeks (GSC11 glioblastoma cells; GSC11, same dosing): 30.7±4.2 mm^3; Tumor volume at 5 weeks (GSC11 glioblastoma cells; GSC11, same dosing): 46.6±4.5 mm^3; Factor VIII-positive area (GSC11 glioblastoma cells; GSC11 model): 3.3±1.1%; Nestin-positive area (GSC11 glioblastoma cells; GSC11 xenograft mouse model): 59.8±6.0%; Mesenchymal tumor marker vimentin / EMT (immunohistochemistry) (GSC11 glioblastoma cells; GSC-11 glioma model): therapy-induced increase in EMT; Macrophage infiltration into tumor (F4/80 IHC staining) (GSC11 glioblastoma cells; GSC-11 glioma xenograft model): stimulating the influx of tumor-promoting macrophages; Tumor volume at 3.5 weeks (GSC17 glioblastoma cells; GSC17, bevacizumab 10 mg/kg i.p. twice per week, Compound 1 10 mg/kg oral twice daily): 0.4±0.4 mm^3; Tumor volume at 4.5 weeks (GSC17 glioblastoma cells; GSC17, same dosing): 0.05±0.03 mm^3; Tumor volume at 5.5 weeks (GSC17 glioblastoma cells; GSC17, same dosing): 9.6±4.6 mm^3; Factor VIII-positive area (GSC17 glioblastoma cells; GSC17 xenograft mouse model): 3.0±0.3%; Nestin-positive area (GSC17 glioblastoma cells; GSC17 xenograft mouse model): 20.6±2.7%; Mesenchymal tumor marker vimentin / EMT (immunohistochemistry) (GSC17 glioblastoma cells; GSC-17 glioma model): therapy-induced increase in EMT; Tumor infiltration of TIE2-positive/F4/80-positive cells (GSC17 glioblastoma cells; GSC-17 glioma xenograft model): increased
